In patent publication US20250144094A1 (Erasca, Inc., priority 2021, published 2025):
pIC50: −log10 of the molar value.

target: Recombinant human ULK1 (1-649) (Homo sapiens (Human), UniProt O75385); experiment: ULK1 ADP Glo kinase activity assay, new method (ULKtide peptide substrate); settings: 25° C., 40 minutes, read-out: ULK1 biochemical IC50
Protocol: Recombinant human ULK1 (1-649) protein expressed in Sf9 insect cells was obtained from SignalChem (Vancouver, BC), catalog #U01-11G. Active kinase was purified via N-terminal GST tag to >85% purity.
ADP GLO Kinase Assay Reagents were obtained from Promega Corp (Madison, WI), catalog #V9104.
Synthetic peptide substrate (ULKtide) with the amino acid sequence YANWLAASIYLDGKKK was obtained from ThermoFisher Scientific USA.
ULK1 inhibitor potency was determined using the luminescent ADP Glo Kinase Assay (Promega), a universal ADP detection system that measures kinase activity by quantifying the amount of ADP produced during a kinase reaction. ULK1 kinase reactions are performed in a standard 96-well microplate (20 μL reaction volume) at 25° C. for 40 minutes in the presence or absence of the test compound (12-point dilution series starting at 10 μM). Addition of peptide substrate and ATP initiates the kinase reaction.
The standard ADP Glo assay is performed in two steps. In step one, following the kinase reaction, an equal volume of ADP-Glo™ Reagent (20 μL) is added to terminate the kinase reaction and deplete the remaining ATP. In the second step, the Kinase Detection Reagent (10 μL) is added to simultaneously convert ADP to ATP and allow the newly synthesized ATP to be measured using a luciferase/luciferin reaction. Step two of the ADP Glo assay is performed in a white 384-well plate (20 μL final volume). Thirty minutes after the addition of the Detection reagent, light generated from the luciferase reaction is measured (1 second exposure) using a microplate compatible luminometer (CLARIOstar, BMG Labtech).
Inhibition of ULK1 kinase activity is determined for each test compound by comparison to DMSO only control wells. Inhibitor IC50 was calculated by plotting the change in luminescence after 30 minutes (response) versus inhibitor concentration (in log molar) then applying the four-parameter variable slope curve fit (GraphPad Prism). Inhibition of ULK1 in biochemical assay is found in Table 4.

Recombinant human ULK1 (1-649), sequence (O75385 1-649): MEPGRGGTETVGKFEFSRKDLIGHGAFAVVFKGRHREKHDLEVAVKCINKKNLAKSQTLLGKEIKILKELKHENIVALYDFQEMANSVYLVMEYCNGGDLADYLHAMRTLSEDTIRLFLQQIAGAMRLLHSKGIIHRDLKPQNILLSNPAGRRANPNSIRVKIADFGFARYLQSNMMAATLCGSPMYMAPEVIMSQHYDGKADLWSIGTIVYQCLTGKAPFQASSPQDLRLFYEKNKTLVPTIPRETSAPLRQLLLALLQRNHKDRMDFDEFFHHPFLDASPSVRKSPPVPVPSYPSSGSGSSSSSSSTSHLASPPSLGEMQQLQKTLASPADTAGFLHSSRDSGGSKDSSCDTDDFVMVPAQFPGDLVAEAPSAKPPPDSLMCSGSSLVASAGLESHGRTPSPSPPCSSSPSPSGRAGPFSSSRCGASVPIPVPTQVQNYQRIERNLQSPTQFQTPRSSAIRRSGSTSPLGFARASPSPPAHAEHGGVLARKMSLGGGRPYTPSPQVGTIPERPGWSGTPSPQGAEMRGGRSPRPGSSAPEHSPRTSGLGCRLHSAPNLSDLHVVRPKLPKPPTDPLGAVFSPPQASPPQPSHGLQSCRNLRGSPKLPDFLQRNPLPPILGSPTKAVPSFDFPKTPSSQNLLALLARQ

Compound | pIC50
CCc1cc(N2C[C@H]3CC[C@@H](C2)N3C)ccc1Nc1ncc(C(F)(F)F)c(-c2cc3c(s2)C(=O)N(C2COC2)CCS3(=O)=O)n1 [Example 348, 7-(2-((2-ethyl-4-((1R,5S)-8-methyl-3,8-diazabicyclo[3.2.1]octan-3-yl)phenyl)amino)-5-(trifluoromethyl)pyrimidin-4-yl)-4-(oxetan-3-yl)-3,4-dihydrothieno[2,3-f][1,4]thiazepin-5(2H)-one 1,1-dioxide] | ≥ 8.30
CCc1cc(N2C[C@H](C)N(C)[C@@H](C)C2)ccc1Nc1ncc(C(F)(F)F)c(-c2cc3c(s2)C(=O)N(C2CC2)CCS3(=O)=O)n1 [Example 363, 4-cyclopropyl-7-(2-((2-ethyl-4-((3S,5S)-3,4,5-trimethylpiperazin-1-yl)phenyl)amino)-5-(trifluoromethyl)pyrimidin-4-yl)-3,4-dihydrothieno[2,3-f][1,4]thiazepin-5(2H)-one 1,1-dioxide] | ≥ 8.30
CCc1cc2c(cc1Nc1ncc(C(F)(F)F)c(-c3cc4c(s3)C(=O)N(C3CCC3)CCS4(=O)=O)n1)CCNC2 [Example 208, 4-cyclobutyl-7-(2-((7-ethyl-1,2,3,4-tetrahydroisoquinolin-6-yl)amino)-5-(trifluoromethyl)pyrimidin-4-yl)-3,4-dihydrothieno[2,3-f][1,4]thiazepin-5(2H)-one 1,1-dioxide] | ≥ 8.30
CCc1cc2c(cc1Nc1ncc(C(F)(F)F)c(-c3cc4c(s3)C(=O)N(C3CC3)CCS4(=O)=O)n1)CCN(CC1CC1)C2 [Example 242, 4-cyclopropyl-7-(2-((2-(cyclopropylmethyl)-7-ethyl-1,2,3,4-tetrahydroisoquinolin-6-yl)amino)-5-(trifluoromethyl)pyrimidin-4-yl)-3,4-dihydrothieno[2,3-f][1,4]thiazepin-5(2H)-one 1,1-dioxide] | ≥ 8.30
CN1C2CC1CN(c1ccc(Nc3ncc(C(F)(F)F)c(-c4cc5c(s4)C(=O)N(C4CC4)CCS5(=O)=O)n3)c(C3CC3)c1)C2 [Example 339, 4-cyclopropyl-7-(2-((2-cyclopropyl-4-(6-methyl-3,6-diazabicyclo[3.1.1]heptan-3-yl)phenyl)amino)-5-(trifluoromethyl)pyrimidin-4-yl)-3,4-dihydrothieno[2,3-f][1,4]thiazepin-5(2H)-one 1,1-dioxide] | ≥ 8.30
O=C1c2sc(-c3nc(Nc4cc5c(cc4C4CC4)CN(C4CC4)CC5)ncc3C(F)(F)F)cc2S(=O)(=O)CCN1C1CC1 [Example 293, 4-Cyclopropyl-7-(2-((2,7-dicyclopropyl-1,2,3,4-tetrahydroisoquinolin-6-yl)amino)-5-(trifluoromethyl)pyrimidin-4-yl)-3,4-dihydrothieno[2,3-f][1,4]thiazepin-5(2H)-one 1,1-dioxide] | 8.00 to 8.30
CN1CCS(=O)(=O)c2cc(-c3nc(Nc4cc5nnn(C)c5cc4Cl)ncc3C(F)(F)F)sc2C1=O [Example 200, 7-(2-((6-chloro-1-methyl-1H-benzo[d][1,2,3]triazol-5-yl)amino)-5-(trifluoromethyl)pyrimidin-4-yl)-4-methyl-3,4-dihydrothieno[2,3-f][1,4]thiazepin-5(2H)-one 1,1-dioxide] | < 7.00
CCc1cc2c(cc1Nc1ncc(C(F)(F)F)c(-c3cc4c(s3)C(=O)N(C)CCS4(=O)=O)n1)CCN(C)C2 [Example 148, 7-(2-((7-ethyl-2-methyl-1,2,3,4-tetrahydroisoquinolin-6-yl)amino)-5-(trifluoromethyl)pyrimidin-4-yl)-4-methyl-3,4-dihydrothieno[2,3-f][1,4]thiazepin-5(2H)-one 1,1-dioxide] | ≥ 8.30
CN1CCc2cc(Nc3ncc(C(F)(F)F)c(-c4cc5c(s4)C(=O)N(C)CCS5(=O)=O)n3)c(F)cc2C1 [Example 140, 7-(2-((7-fluoro-2-methyl-1,2,3,4-tetrahydroisoquinolin-6-yl)amino)-5-(trifluoromethyl)pyrimidin-4-yl)-4-methyl-3,4-dihydrothieno[2,3-f][1,4]thiazepin-5(2H)-one 1,1-dioxide] | ≥ 8.30
CC1(C)CC(CN2CCc3cc(Nc4ncc(C(F)(F)F)c(-c5cc6c(s5)C(=O)N(C5CC5)CCS6(=O)=O)n4)c(C4CC4)cc3C2)O1 (centres unmarked) [Example 297, 4-Cyclopropyl-7-(2-((7-cyclopropyl-2-((4,4-dimethyloxetan-2-yl)methyl)-1,2,3,4-tetrahydroisoquinolin-6-yl)amino)-5-(trifluoromethyl)pyrimidin-4-yl)-3,4-dihydrothieno[2,3-f][1,4]thiazepin-5(2H)-one 1,1-dioxide] | ≥ 8.30
CCN1CCS(=O)(=O)c2cc(-c3nc(Nc4cc5c(cc4Cl)CCNC5)ncc3C(F)(F)F)sc2C1=O [Example 204, 7-(2-((6-chloro-1,2,3,4-tetrahydroisoquinolin-7-yl)amino)-5-(trifluoromethyl)pyrimidin-4-yl)-4-ethyl-3,4-dihydrothieno[2,3-f][1,4]thiazepin-5(2H)-one 1,1-dioxide] | ≥ 8.30
CN1CCS(=O)(=O)c2cc(-c3nc(Nc4ccc(N5CCN(CC6CC6)CC5)cc4Cl)ncc3C(F)(F)F)sc2C1=O [Example 206, 7-(2-((2-chloro-4-(4-(cyclopropylmethyl)piperazin-1-yl)phenyl)amino)-5-(trifluoromethyl)pyrimidin-4-yl)-4-methyl-3,4-dihydrothieno[2,3-f][1,4]thiazepin-5(2H)-one 1,1-dioxide] | ≥ 8.30
CN1CCC(n2cc(Nc3ncc(C(F)(F)F)c(-c4cc5c(s4)C(=O)NCCS5(=O)=O)n3)c(C3CC3)n2)CC1 [Example 152, 7-(2-((3-cyclopropyl-1-(1-methylpiperidin-4-yl)-1H-pyrazol-4-yl)amino)-5-(trifluoromethyl)pyrimidin-4-yl)-3,4-dihydrothieno[2,3-f][1,4]thiazepin-5(2H)-one 1,1-dioxide] | ≥ 8.30

The remaining lines, values ahead:

pIC50 | Compound
8.00 to 8.30 | CN1CCS(=O)(=O)c2cc(-c3nc(Nc4ccc(N5CCNCC5)cc4C4CC4)ncc3C(F)(F)F)sc2C1=O [Example 238, 7-(2-((2-cyclopropyl-4-(piperazin-1-yl)phenyl)amino)-5-(trifluoromethyl)pyrimidin-4-yl)-4-methyl-3,4-dihydrothieno[2,3-f][1,4]thiazepin-5(2H)-one 1,1-dioxide]
≥ 8.30 | CCc1cc(N2CCN[C@@H](C)C2)ccc1Nc1ncc(C(F)(F)F)c(-c2cc3c(s2)C(=O)N(C2COC2)CCS3(=O)=O)n1 [Example 354, (S)-7-(2-((2-ethyl-4-(3-methylpiperazin-1-yl)phenyl)amino)-5-(trifluoromethyl)pyrimidin-4-yl)-4-(oxetan-3-yl)-3,4-dihydrothieno[2,3-f][1,4]thiazepin-5(2H)-one 1,1-dioxide]
≥ 8.30 | CN1C[C@H]2C[C@@H]1CN2c1ccc(Nc2ncc(C(F)(F)F)c(-c3cc4c(s3)C(=O)N(C3COC3)CCS4(=O)=O)n2)c(C2CC2)c1 [Example 334, 7-(2-((2-cyclopropyl-4-((1R,4R)-5-methyl-2,5-diazabicyclo[2.2.1]heptan-2-yl)phenyl)amino)-5-(trifluoromethyl)pyrimidin-4-yl)-4-(oxetan-3-yl)-3,4-dihydrothieno[2,3-f][1,4]thiazepin-5(2H)-one 1,1-dioxide]
≥ 8.30 | CCc1cc(N2C[C@H](C)N[C@@H](C)C2)ccc1Nc1ncc(C(F)(F)F)c(-c2cc3c(s2)C(=O)N(C2COC2)CCS3(=O)=O)n1 [Example 370, 7-(2-((4-((3S,5S)-3,5-dimethylpiperazin-1-yl)-2-ethylphenyl)amino)-5-(trifluoromethyl)pyrimidin-4-yl)-4-(oxetan-3-yl)-3,4-dihydrothieno[2,3-f][1,4]thiazepin-5(2H)-one 1,1-dioxide]
≥ 8.30 | O=C1c2sc(-c3nc(Nc4ccc(N5CC6(CNC6)C5)cc4C4CC4)ncc3C(F)(F)F)cc2S(=O)(=O)CCN1C1COC1 [Example 377, 7-(2-((2-Cyclopropyl-4-(2,6-diazaspiro[3.3]heptan-2-yl)phenyl)amino)-5-(trifluoromethyl)pyrimidin-4-yl)-4-(oxetan-3-yl)-3,4-dihydrothieno[2,3-f][1,4]thiazepin-5(2H)-one 1,1-dioxide]
≥ 8.30 | C[C@@H]1CN(c2ccc(Nc3ncc(C(F)(F)F)c(-c4cc5c(s4)C(=O)N(C4CC4)CCS5(=O)=O)n3)c(C3CC3)c2)CCN1 [Example 308, (R)-4-cyclopropyl-7-(2-((2-cyclopropyl-4-(3-methylpiperazin-1-yl)phenyl)amino)-5-(trifluoromethyl)pyrimidin-4-yl)-3,4-dihydrothieno[2,3-f][1,4]thiazepin-5(2H)-one 1,1-dioxide]
≥ 8.30 | NC(=O)CN1CCc2cc(Nc3ncc(C(F)(F)F)c(-c4cc5c(s4)C(=O)N(C4COC4)CCS5(=O)=O)n3)c(C3CC3)cc2C1 [Example 284, 2-(7-cyclopropyl-6-((4-(4-(oxetan-3-yl)-1,1-dioxido-5-oxo-2,3,4,5-tetrahydrothieno[2,3-f][1,4]thiazepin-7-yl)-5-(trifluoromethyl)pyrimidin-2-yl)amino)-3,4-dihydroisoquinolin-2(1H)-yl)acetamide]
